Values quoted from earlier work, collected in patent publication US20160354326A1, “LOCAL ANESTHETIC SOLUTION FOR DENTAL AND/OR CONTRAST MEDIA USE” (priority 2014, published 2016).

Conditions: dissolved in solution; sucrose standard = 1
In the case of `OC[C@@H](O)[C@@H](O)[C@H](O)[C@@H](O)CO` [Sorbitol], the “sweetness perception rating (times the sweetness of sucrose in solution)” value (“sweetness perception rating” below) is listed as 0.6. For `OC[C@H]1O[C@@](CO)(O[C@H]2O[C@H](CO)[C@@H](O)[C@H](O)[C@H]2O)[C@@H](O)[C@@H]1O` [Sucrose], the “sweetness perception rating” value is given as 1. In the case of `O=C(CO)[C@@H](O)[C@H](O)[C@H](O)CO` [fructose], the “sweetness perception rating” value is given as 1.7.
